We go through eight compounds from ChEMBL document CHEMBL1201862, “PubChem BioAssay data set” (2004).

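Cultured in 96-well plates, cells were exposed to test compound for 48 hours across five concentrations. Abbreviation: GI50, concentration required for 50% inhibition of growth.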 Active and inactive are the calls of the source. Rule as the data show it: active = GI50 up to about 1.1 µM and inactive = higher.

Some test systems named below: MDA-MB-231; BT-549; MCF7; HOP-62; NCI-H23; IGROV-1; Hs-578T; OVCAR-8; UO-31; DU-145; KM12; A498; K562; MDA-MB-435; HL-60; SK-MEL-2; HCT-15; OVCAR-4; OVCAR-3; ACHN.
Experiment in all cases: inhibition of tumour cell growth, NCI panel, 48 h

On to `C/C1=C/C(=O)O[C@@H]2C[C@@H](CC[C@H](C)/C=C\C=C\CC1)O[C@@](O)([C@@H]1CSC(=O)N1)C2` [LATRUNCULIN A], for which the GI50 was 0.0834 µM (active) with MDA-MB-231; 0.305 µM (active) with BT-549; 1.28 µM (inactive) in the assay with MCF7; 0.178 µM (active) in the assay with HOP-62; 2.14 µM (inactive) in the assay on NCI-H23; 0.133 µM (active) with IGROV-1. In addition, the GI50 is 0.114 µM (active) in the assay on Hs-578T; 1.41 µM (inactive) with OVCAR-8; 0.3 µM (active) in the assay with UO-31; 2.77 µM (inactive) in the assay with DU-145; > 10 µM (inactive) with KM12; 0.111 µM (active) in the assay with A498. The GI50 with K562 is 3.34 µM (inactive); in the assay on MDA-MB-435 it was 0.44 µM (active); in the assay with HL-60, 3.28 µM (inactive); in the assay with SK-MEL-2 it was 5.25 µM (inactive); in the assay with HCT-15, 0.52 µM; in the assay with OVCAR-4, 1.02 µM (active). Also, the GI50 in the assay with OVCAR-3 was 1.03 µM (active); in the assay on ACHN, 0.313 µM (active).

With `CC(C)C[S+]1C2=C(CC(C)(C)CC2=O)[N-]c2ccccc21` (stereo not given), the GI50 in the assay with MDA-MB-231, with BT-549, with MCF7, in the assay with HOP-62, with NCI-H23 and in the assay with IGROV-1 was > 100 µM (inactive) throughout. The GI50 in the assay with Hs-578T, with OVCAR-8, in the assay on UO-31, in the assay with DU-145, with KM12 and in the assay with A498 was > 100 µM (inactive) in each case. Moreover, the GI50 in the assay on K562 was 71.9 µM (inactive); in the assay on MDA-MB-435 it was > 100 µM (inactive); with HL-60, > 100 µM (inactive); in the assay with SK-MEL-2, > 100 µM (inactive); in the assay with HCT-15, over 100 µM; with OVCAR-4 it was > 100 µM (inactive). Besides, the GI50 in the assay on OVCAR-3 and in the assay on ACHN was > 100 µM (inactive) in each case.

For the compound `CCC(=O)/C=C/c1ccccc1`, the GI50 in the assay with MDA-MB-231 was > 100 µM (inactive); in the assay with BT-549, 32.7 µM (inactive); with MCF7 it was 31.7 µM (inactive); in the assay on HOP-62, > 100 µM (inactive); with NCI-H23 it was 47.4 µM (inactive); in the assay with IGROV-1, 76.9 µM (inactive). In addition, the GI50 in the assay on Hs-578T is 21.8 µM (inactive); with OVCAR-8, 51.3 µM (inactive); in the assay on UO-31, 76.6 µM (inactive); with DU-145, > 100 µM (inactive); with KM12, 14.6 µM (inactive); in the assay on A498, 48.9 µM (inactive). The GI50 is 25.6 µM (inactive) with K562; 33.8 µM (inactive) in the assay with MDA-MB-435; 33.4 µM (inactive) in the assay on HL-60; > 100 µM (inactive) with SK-MEL-2; 35.9 µM in the assay with HCT-15; 95.9 µM (inactive) in the assay on OVCAR-4. Moreover, the figures for the GI50 with OVCAR-3 and with ACHN were 67.6 µM (inactive) and 79.1 µM (inactive), respectively.

`Oc1ccc(SCc2cc(O)ccc2O)cc1`: the GI50 in the assay with MDA-MB-231 was 16.5 µM (inactive); in the assay on BT-549 it was 3.81 µM (inactive); in the assay on MCF7, 12.6 µM (inactive); in the assay on HOP-62, 14.8 µM (inactive); in the assay with NCI-H23 it was 28.5 µM (inactive); with IGROV-1 it was 10.1 µM (inactive). The GI50 was 27.9 µM (inactive) with Hs-578T; 16.5 µM (inactive) with OVCAR-8; 6.05 µM (inactive) in the assay with UO-31; 24.7 µM (inactive) in the assay on DU-145; 17.5 µM (inactive) with KM12; 34 µM (inactive) in the assay with A498. Further, the GI50 in the assay with K562 was 3.96 µM (inactive); in the assay with MDA-MB-435, 13.1 µM (inactive); in the assay on HL-60, 2.85 µM (inactive); in the assay with SK-MEL-2 it was 14.9 µM (inactive); in the assay with HCT-15 it was 9.55 µM; in the assay on OVCAR-4, 5.5 µM (inactive). In addition, the GI50 with OVCAR-3 is 7.69 µM (inactive); in the assay with ACHN, 13.7 µM (inactive).

Turning to `CC1(C)S[C@@H]2[C@H](NC(=O)C3(N)CCCCC3)C(=O)N2[C@H]1C(=O)O` [CYCLACILLIN], the GI50 in the assay on MDA-MB-231, with BT-549, in the assay with MCF7, in the assay on HOP-62, in the assay on NCI-H23 and in the assay on IGROV-1 was > 100 µM (inactive) each time. Also, the GI50 with Hs-578T, with OVCAR-8, in the assay on UO-31, in the assay on DU-145, in the assay on KM12 and in the assay with A498 was > 100 µM (inactive) throughout. Moreover, the GI50 is > 100 µM (inactive) in the assay on K562; > 100 µM (inactive) with MDA-MB-435; > 100 µM (inactive) in the assay on HL-60; > 100 µM (inactive) with SK-MEL-2; over 100 µM with HCT-15; > 100 µM (inactive) in the assay with OVCAR-4. For the same compound, the GI50 in the assay on OVCAR-3 and with ACHN was > 100 µM (inactive) in each case.

For the compound `O=C(CN1c2ccccc2Sc2ccccc21)n1cnc2ccccc21`, the GI50 is 53.2 µM (inactive) with MDA-MB-231; > 100 µM (inactive) in the assay with BT-549; > 100 µM (inactive) in the assay with MCF7; > 100 µM (inactive) in the assay on HOP-62; 77.3 µM (inactive) in the assay with NCI-H23; > 100 µM (inactive) in the assay with IGROV-1. Moreover, the GI50 with Hs-578T was > 100 µM (inactive); with OVCAR-8, 72.6 µM (inactive); with UO-31, 75.9 µM (inactive); in the assay on DU-145, > 100 µM (inactive); with KM12, 59.8 µM (inactive); in the assay with A498, 45.3 µM (inactive). The GI50 in the assay with K562 is 99.5 µM (inactive); in the assay on MDA-MB-435 it was > 100 µM (inactive); in the assay with HL-60, 89.3 µM (inactive); in the assay on SK-MEL-2 it was > 100 µM (inactive); in the assay on HCT-15, 99.8 µM; in the assay with OVCAR-4, 69 µM (inactive). Further, the GI50 in the assay with OVCAR-3 was 62.8 µM (inactive); in the assay with ACHN, > 100 µM (inactive).

`O=S(=O)(Nc1nc2ccccc2nc1Nc1ccc2ccccc2c1)c1ccccc1`: the GI50 was 26.4 µM (inactive) with MDA-MB-231; 15.8 µM (inactive) with BT-549; 10.9 µM (inactive) in the assay on MCF7; 10.7 µM (inactive) in the assay on HOP-62; 6.89 µM (inactive) in the assay on NCI-H23; 9.59 µM (inactive) in the assay on IGROV-1. Besides, the GI50 in the assay with Hs-578T was 14.3 µM (inactive); in the assay on OVCAR-8, 14.4 µM (inactive); in the assay with UO-31, 3.61 µM (inactive); with DU-145, 20.3 µM (inactive); in the assay on KM12, 6 µM (inactive); in the assay on A498, 28.3 µM (inactive). Also, the GI50 in the assay on K562 is 22.5 µM (inactive); with MDA-MB-435, 10.8 µM (inactive); with HL-60 it was 5.77 µM (inactive); in the assay with SK-MEL-2, 3.19 µM (inactive); in the assay on HCT-15, 11.1 µM; in the assay with OVCAR-4 it was 4.67 µM (inactive). For the same compound, the GI50 with OVCAR-3 was 1.87 µM (inactive); in the assay on ACHN it was 17.3 µM (inactive).

Consider `CCCCCCCC/C=C1\CCC(CN2CCOCC2)C1=O` (stereo not given), for which the GI50 in the assay with MDA-MB-231 was 2.23 µM (inactive); with BT-549 it was 10.8 µM (inactive); in the assay on MCF7 it was 1.94 µM (inactive); in the assay with HOP-62 it was 15.1 µM (inactive); in the assay with NCI-H23, 10.2 µM (inactive); in the assay on IGROV-1, 7.35 µM (inactive). Besides, the GI50 in the assay on Hs-578T is 4.36 µM (inactive); in the assay on OVCAR-8, 3.83 µM (inactive); in the assay on UO-31, 8.36 µM (inactive); with DU-145, 5.3 µM (inactive); in the assay with KM12, 3.41 µM (inactive); in the assay on A498, 15.8 µM (inactive). Besides, the GI50 in the assay on K562 was 2.74 µM (inactive); in the assay on MDA-MB-435, 4.81 µM (inactive); in the assay with HL-60, 3.11 µM (inactive); with SK-MEL-2, 14.8 µM (inactive); with HCT-15 it was 3.09 µM; in the assay with OVCAR-4 it was 13.3 µM (inactive). Further, the GI50 was 7.5 µM (inactive) in the assay with OVCAR-3 and 16.4 µM (inactive) with ACHN.
